In patent publication US9556217B2, “Amphiphilic compounds” (WISCONSIN ALUMNI RESEARCH FOUNDATION, priority 2012, dated 2017):

Assays:
CMP-Sia = target: T1, CMP-Sia (Mus musculus, UniProt Q61420); assay: CPM thermal stability assay, CMP-Sia; design: species or system murine; conditions: CMC+0.04 wt %, 30° C., under the conditions used for the gel filtration analysis
T1 construct: GFP-His (C, cleaved yes); made in house; host or cells: Saccharomyces cerevisiae
T1 sequence (Q61420 1-336): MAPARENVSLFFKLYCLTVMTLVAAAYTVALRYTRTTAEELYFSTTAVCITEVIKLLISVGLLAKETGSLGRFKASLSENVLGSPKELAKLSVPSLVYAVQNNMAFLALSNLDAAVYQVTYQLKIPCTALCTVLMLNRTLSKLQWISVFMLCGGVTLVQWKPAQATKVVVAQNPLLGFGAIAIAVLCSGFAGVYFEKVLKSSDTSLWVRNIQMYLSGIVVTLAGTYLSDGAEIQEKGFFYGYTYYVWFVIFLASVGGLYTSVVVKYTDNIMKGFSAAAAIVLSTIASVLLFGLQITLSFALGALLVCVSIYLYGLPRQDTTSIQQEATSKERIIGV
Experimental: FIG. 6. CPM assays for (a) CMP-Sia, (b) GlpG and (c) SQR solubilized with each new amphiphile or DDM. The coumarin moiety of CPM is internally quenched by the maleimide unit, but the coumarin becomes fluorescent following reaction with Cys side chain thiol groups exposed upon protein unfolding. The CPM assay can therefore be used to monitor the extent of protein unfolding. CMP-Sia and GlpG were initially extracted from the native membrane with 1% DDM in PBS, 10 mM imidazole (pH 8.0), 150 mM NaCl, 10% glycerol, and isolated in 20 mM Tris (pH 7.5), 150 mM NaCl containing 0.03% DDM. SQR was extracted from the membrane using 2% C12E9 in 20 mM potassium phosphate (pH 7.4), 0.2 M EDTA, and isolated in 20 mM Tris (pH 7.6), 0.2% decyl-β-D-maltoside (DM). […] The “Relative amount of folded protein” in each case is defined as follows: 100% corresponds to the fluorescence emission intensity at time=0 min; 0% corresponds to the lowest value measured among the amphiphile-treated samples for each protein during the 130 min assay period. […] For GlpG and SQR, 0% is defined by the lowest value measured for protein solubilized with DDM. […]
CMP-Sia and GlpG were expressed as fusion proteins with a C-terminal GFP-His tag in Saccharomyces cerevisiae and Escherichia coli respectively. […]

LHI-RC superassembly = assay: Extraction of LHI-RC superassembly from membranes; design: species or system R. capsulatus; conditions: 2 wt % GDN
Experimental: The favorable MelB extraction performance of GDN led to the examination of this amphiphile for extraction of other IMPs. […] DDM and GDN were used to extract a CMP-Sia fusion protein bearing green fluorescent protein (GFP) at the C-terminus, after expression in Saccharomyces cerevisiae; the amount of solubilized protein was estimated by total fluorescence. GDN (2 wt %), DDM (1 wt %) and OG (1 wt %) gave ˜70%, ˜80% and ˜50% extraction yields, respectively.
The procedure was performed according to the protocol reported by Chae and coworkers (Nat. Methods 2010, 7, 1003-1008).
The solubilization and stability of the R. capsulatus superassembly were assessed according to the published protocol (Chae et al., J. Am. Chem. Soc. 2010, 132, 16750-16752). Briefly, specialized photosynthetic membranes obtained from an engineered strain of Rhodobacter (R.) capsulatus, U43[pUHTM86Bgl], lacking the LHII light-harvesting complex, were used. Solubilization of the LHI-RC superassembly began by thawing, homogenizing, and incubating frozen aliquots of R. capsulatus membranes at 32° C. for 30 min. Subsequent 30-min incubation was performed after adding DDM or LDAO at 1.0 wt % or GDN at 2.0 wt % in the solid form. […] To assess solubilization efficiency, UV-Vis spectra of the solubilized protein solutions were measured in a range of 650˜950 nm.

Row | SMILES | Relative amount of folded protein (CPM assay), CMP-Sia (CMP-Sia) | LHI-RC superassembly extraction compared with 1 wt % DDM (LHI-RC superassembly)
1 | CCCCCCCCCCCCO[C@@H]1O[C@H](CO)[C@@H](O[C@H]2O[C@H](CO)[C@@H](O)[C@H](O)[C@H]2O)[C@H](O)[C@H]1O [DDM, dodecyl-β-D-maltoside, reference compound] | ~20% | –
2 | C[C@@H]1CC[C@@]2(OC1)O[C@H]1C[C@H]3[C@@H]4CC=C5C[C@@H](OCCC(CO[C@@H]6OC(CO)[C@@H](O[C@H]7OC(CO)[C@@H](O)C(O)C7O)C(O)C6O)CO[C@@H]6OC(CO)[C@@H](O[C@H]7OC(CO)[C@@H](O)C(O)C7O)C(O)C6O)CC[C@]5(C)[C@H]4CC[C@]3(C)[C@@H]1[C@@H]2C (some centres unmarked) [GDN, glyco-diosgenin] | – | Comparable results
